{"source": "patent US20060069132A1", "about": "“Azolecarboxamide herbicides” (priority 2004, published 2006)", "key": {"[1]": {"tested_on": "velvetleaf", "experiment": "Test A pre-/postemergence herbicide test", "type": "in vivo, Abutilon theophrasti", "outline": "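Both application timings were run together: directed soil spray over freshly planted seeds in sandy loam, and runoff spray onto 2–10 cm seedlings. Evaluation after ~10 days in greenhouse used a 0–100 visual scale versus untreated controls.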"}, "[2]": {"tested_on": "kochia", "experiment": "Test C pre-/postemergence herbicide test", "type": "in vivo, Kochia scoparia", "outline": "(§1)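 Emerged plants at the 1- to 4-leaf stage (2–18 cm), or freshly planted seeds, received test chemicals in a non-phytotoxic solvent mixture with surfactant. Response was visually scored against controls after 12 to 14 days in the greenhouse, on a 0 (no effect) to 100 (complete control) scale.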"}, "[3]": {"tested_on": "morningglory", "experiment": "Test C pre-/postemergence herbicide test", "type": "in vivo, Ipomoea coccinea", "set-up": "key to Plant response rating, Morningglory: 0 = no effect, 100 = complete control", "outline": "as §1"}, "[4]": {"tested_on": "soybean", "experiment": "Test C pre-/postemergence herbicide test", "type": "in vivo, Glycine max", "outline": "as §1"}, "[5]": {"tested_on": "common ragweed", "experiment": "Test C pre-/postemergence herbicide test", "type": "in vivo, Ambrosia elatior", "set-up": "key to Plant response rating, Ragweed: 0 = no effect, 100 = complete control", "outline": "as §1"}, "[6]": {"tested_on": "Surinam grass", "experiment": "Test C pre-/postemergence herbicide test", "type": "in vivo, Urochloa decumbens", "outline": "as §1"}, "[7]": {"tested_on": "corn", "experiment": "Test C pre-/postemergence herbicide test", "type": "in vivo, Zea mays", "outline": "as §1"}, "[8]": {"tested_on": "giant foxtail", "experiment": "Test C pre-/postemergence herbicide test", "type": "in vivo, Setaria faberi", "outline": "as §1"}, "[9]": {"conditions": "Postemergence, 500 g ai/ha, 0 to 100 scale, 0 no effect, 100 complete control"}, "[10]": {"conditions": "Postemergence, 2000 g ai/ha, 0 to 100 scale, 0 no effect, 100 complete control"}, "[11]": {"conditions": "62 g ai/ha, preemergence, scale 0 to 100"}, "[12]": {"conditions": "125 g ai/ha, scale 0 (no effect) to 100 (complete control), visual, 12 to 14 days, preemergence"}, "[13]": {"conditions": "250 g ai/ha, scale 0-100, preemergence"}, "[14]": {"conditions": "500 g ai/ha, scale 0 to 100 (0 no effect, 100 complete control), visual, 12 to 14 days, preemergence"}, "[15]": {"conditions": "Postemergence, 500 g ai/ha, scale 0 to 100"}, "[16]": {"conditions": "Postemergence, 250 g ai/ha, scale 0 to 100, 0 no effect, 100 complete control"}, "[17]": {"conditions": "postemergence, 125 g ai/ha, scale 0 to 100"}, "[18]": {"conditions": "postemergence, 62 g ai/ha, scale 0 to 100"}, "[19]": {"conditions": "31 g ai/ha, preemergence, scale 0 to 100"}, "[20]": {"conditions": "Postemergence, 125 g ai/ha, scale 0 to 100, 0 no effect, 100 complete control"}}}
{"compound": "CCc1nc(C(C)(C)C)sc1C(=O)Nc1cccc(C(=O)NCC2CC2)c1", "note": "[Compound 212]", "values": [{"measurement": "Velvetleaf plant response rating", "setting": "[1]; [9]", "value": 35}, {"measurement": "Plant response rating, Velvetleaf", "setting": "[1]; [10]", "value": 35}, {"measurement": "Velvetleaf plant response rating", "setting": "[1]; Preemergence, 2000 g ai/ha, visual rating, 0 to 100 scale (0 no effect, 100 complete control)", "value": 100}, {"measurement": "Velvetleaf plant response rating", "setting": "[1]; preemergence, 500 g ai/ha, visual injury, 0 to 100 scale (0 no effect, 100 complete control)", "value": 65}, {"measurement": "Plant response rating, Kochia", "setting": "[2]; [11]", "value": 85}, {"measurement": "Plant response rating, Kochia", "setting": "[2]; [12]", "value": 85}, {"measurement": "Plant response rating, Kochia", "setting": "[2]; [13]", "value": 90}, {"measurement": "Plant response rating, Kochia", "setting": "[2]; [14]", "value": 95}, {"measurement": "Kochia plant response rating", "setting": "[2]; [15]", "value": 90}, {"measurement": "Plant response rating, Kochia", "setting": "[2]; [16]", "value": 90}, {"measurement": "Plant response rating, Kochia", "setting": "[2]; [17]", "value": 80}, {"measurement": "Plant response rating, Kochia", "setting": "[2]; [18]", "value": 80}, {"measurement": "Plant response rating, Morningglory", "setting": "[3]; [11]", "value": 0}, {"measurement": "Plant response rating, Morningglory", "setting": "[3]; [12]", "value": 0}, {"measurement": "Plant response rating, Morningglory", "setting": "[3]; [13]", "value": 5}, {"measurement": "Plant response rating, Morningglory", "setting": "[3]; [14]", "value": 30}, {"measurement": "Morningglory plant response rating", "setting": "[3]; [15]", "value": 70}, {"measurement": "Plant response rating, Morningglory", "setting": "[3]; [16]", "value": 70}, {"measurement": "Plant response rating, Morningglory", "setting": "[3]; [17]", "value": 10}, {"measurement": "Plant response rating, Morningglory", "setting": "[3]; [18]", "value": 10}, {"measurement": "Plant response rating, Soybean", "setting": "[4]; [11]", "value": 0}, {"measurement": "Plant response rating, Soybean", "setting": "[4]; [12]", "value": 0}, {"measurement": "Plant response rating, Soybean", "setting": "[4]; [13]", "value": 0}, {"measurement": "Plant response rating, Soybean", "setting": "[4]; [14]", "value": 60}, {"measurement": "Soybean plant response rating", "setting": "[4]; [15]", "value": 85}, {"measurement": "Plant response rating, Soybean", "setting": "[4]; [16]", "value": 70}, {"measurement": "Plant response rating, Soybean", "setting": "[4]; [17]", "value": 60}, {"measurement": "Plant response rating, Soybean", "setting": "[4]; [18]", "value": 50}, {"measurement": "Plant response rating, Ragweed", "setting": "[5]; [11]", "value": 0}, {"measurement": "Plant response rating, Ragweed", "setting": "[5]; [12]", "value": 0}, {"measurement": "Plant response rating, Ragweed", "setting": "[5]; [13]", "value": 30}, {"measurement": "Plant response rating, Ragweed", "setting": "[5]; [14]", "value": 95}, {"measurement": "Plant response rating, Ragweed", "setting": "[5]; [16]", "value": 80}, {"measurement": "Plant response rating, Ragweed", "setting": "[5]; [17]", "value": 60}, {"measurement": "Plant response rating, Ragweed", "setting": "[5]; [18]", "value": 60}, {"measurement": "Plant response rating, Surinam Grass", "setting": "[6]; [11]", "value": 0}, {"measurement": "Plant response rating, Surinam Grass", "setting": "[6]; [12]", "value": 0}, {"measurement": "Plant response rating, Surinam Grass", "setting": "[6]; [13]", "value": 5}, {"measurement": "Plant response rating, Surinam Grass", "setting": "[6]; [14]", "value": 20}, {"measurement": "Surinam Grass plant response rating", "setting": "[6]; [15]", "value": 50}, {"measurement": "Plant response rating, Surinam Grass", "setting": "[6]; [16]", "value": 20}, {"measurement": "Plant response rating, Surinam Grass", "setting": "[6]; [17]", "value": 5}, {"measurement": "Plant response rating, Surinam Grass", "setting": "[6]; [18]", "value": 0}, {"measurement": "Plant response rating, Corn", "setting": "[7]; [11]", "value": 0}, {"measurement": "Plant response rating, Corn", "setting": "[7]; [12]", "value": 0}, {"measurement": "Plant response rating, Corn", "setting": "[7]; [13]", "value": 30}, {"measurement": "Plant response rating, Corn", "setting": "[7]; [14]", "value": 40}, {"measurement": "Corn plant response rating", "setting": "[7]; [15]", "value": 40}, {"measurement": "Plant response rating, Corn", "setting": "[7]; [16]", "value": 40}, {"measurement": "Plant response rating, Corn", "setting": "[7]; [17]", "value": 35}, {"measurement": "Plant response rating, Corn", "setting": "[7]; [18]", "value": 15}, {"measurement": "Plant response rating, Foxtail, Giant", "setting": "[8]; [11]", "value": 0}, {"measurement": "Plant response rating, Foxtail, Giant", "setting": "[8]; [12]", "value": 20}, {"measurement": "Plant response rating, Foxtail, Giant", "setting": "[8]; [13]", "value": 20}, {"measurement": "Plant response rating, Foxtail, Giant", "setting": "[8]; [14]", "value": 95}, {"measurement": "Foxtail, Giant plant response rating", "setting": "[8]; [15]", "value": 60}, {"measurement": "Plant response rating, Foxtail, Giant", "setting": "[8]; [16]", "value": 50}, {"measurement": "Plant response rating, Foxtail, Giant", "setting": "[8]; [17]", "value": 20}, {"measurement": "Plant response rating, Foxtail, Giant", "setting": "[8]; [18]", "value": 10}]}
{"compound": "CCNC(=O)c1cccc(NC(=O)c2cc(C(C)(C)C)nn2CCF)c1", "note": "[Compound 35]", "values": [{"measurement": "Plant response rating, Velvetleaf", "setting": "[1]; [9]", "value": 25}, {"measurement": "Plant response rating, Velvetleaf", "setting": "[1]; [10]", "value": 40}, {"measurement": "Velvetleaf plant response rating", "setting": "[1]; Preemergence, 500 g ai/ha, visual rating, 0 to 100 scale (0 no effect, 100 complete control)", "value": 35}, {"measurement": "Velvetleaf plant response rating", "setting": "[1]; Preemergence, 2000 g ai/ha, 0 to 100 scale, 0 no effect, 100 complete control", "value": 95}, {"measurement": "Plant response rating, Kochia", "setting": "[2]; [19]", "value": 0}, {"measurement": "Plant response rating (0 = no effect, 100 = complete control), Kochia", "setting": "[2]; 62 g ai/ha, preemergence", "value": 10}, {"measurement": "Plant response rating, Kochia", "setting": "[2]; [12]", "value": 10}, {"measurement": "Plant response rating, Kochia", "setting": "[2]; [20]", "value": 90}, {"measurement": "Plant response rating, Kochia", "setting": "[2]; [18]", "value": 90}, {"measurement": "Plant response rating, Morningglory", "setting": "[3]; [19]", "value": 0}, {"measurement": "Plant response rating (0 = no effect, 100 = complete control), Morningglory", "setting": "[3]; 62 g ai/ha, preemergence", "value": 100}, {"measurement": "Plant response rating, Morningglory", "setting": "[3]; [17]", "value": 40}, {"measurement": "Plant response rating, Morningglory", "setting": "[3]; [18]", "value": 20}, {"measurement": "Plant response rating, Soybean", "setting": "[4]; [19]", "value": 0}, {"measurement": "Plant response rating (0 = no effect, 100 = complete control), Soybean", "setting": "[4]; 62 g ai/ha, preemergence", "value": 0}, {"measurement": "Plant response rating, Soybean", "setting": "[4]; [12]", "value": 0}, {"measurement": "Plant response rating, Soybean", "setting": "[4]; [17]", "value": 90}, {"measurement": "Plant response rating, Soybean", "setting": "[4]; [18]", "value": 90}, {"measurement": "Plant response rating, Ragweed", "setting": "[5]; [19]", "value": 0}, {"measurement": "Plant response rating (0 = no effect, 100 = complete control), Ragweed", "setting": "[5]; 62 g ai/ha, preemergence", "value": 10}, {"measurement": "Plant response rating, Ragweed", "setting": "[5]; [12]", "value": 80}, {"measurement": "Plant response rating, Ragweed", "setting": "[5]; [17]", "value": 50}, {"measurement": "Plant response rating, Ragweed", "setting": "[5]; [18]", "value": 50}, {"measurement": "Plant response rating, Surinam Grass", "setting": "[6]; [19]", "value": 0}, {"measurement": "Plant response rating (0 = no effect, 100 = complete control), Surinam Grass", "setting": "[6]; 62 g ai/ha, preemergence", "value": 10}, {"measurement": "Plant response rating, Surinam Grass", "setting": "[6]; [12]", "value": 20}, {"measurement": "Plant response rating, Surinam Grass", "setting": "[6]; [17]", "value": 60}, {"measurement": "Plant response rating, Surinam Grass", "setting": "[6]; [18]", "value": 40}, {"measurement": "Plant response rating, Corn", "setting": "[7]; [19]", "value": 0}, {"measurement": "Plant response rating (0 = no effect, 100 = complete control), Corn", "setting": "[7]; 62 g ai/ha, preemergence", "value": 0}, {"measurement": "Plant response rating, Corn", "setting": "[7]; [12]", "value": 0}, {"measurement": "Plant response rating, Corn", "setting": "[7]; [20]", "value": 40}, {"measurement": "Plant response rating, Corn", "setting": "[7]; [18]", "value": 30}, {"measurement": "Plant response rating, Foxtail, Giant", "setting": "[8]; [19]", "value": 0}, {"measurement": "Plant response rating (0 = no effect, 100 = complete control), Foxtail, Giant", "setting": "[8]; 62 g ai/ha, preemergence", "value": 20}, {"measurement": "Plant response rating, Foxtail, Giant", "setting": "[8]; [12]", "value": 30}, {"measurement": "Plant response rating, Foxtail, Giant", "setting": "[8]; [20]", "value": 40}, {"measurement": "Plant response rating, Foxtail, Giant", "setting": "[8]; [18]", "value": 40}]}
